Our source for the IC50, efficacy in patients and safety in patients values is US11465984B2, “Compound having ERK kinase inhibitory activity and use thereof” (SHANGHAI HAIHE PHARMACEUTICAL CO., LTD., priority 2017, dated 2022).

Some results are limits rather than exact numbers.

ERK2 kinase, sequence (P28482 whole entry): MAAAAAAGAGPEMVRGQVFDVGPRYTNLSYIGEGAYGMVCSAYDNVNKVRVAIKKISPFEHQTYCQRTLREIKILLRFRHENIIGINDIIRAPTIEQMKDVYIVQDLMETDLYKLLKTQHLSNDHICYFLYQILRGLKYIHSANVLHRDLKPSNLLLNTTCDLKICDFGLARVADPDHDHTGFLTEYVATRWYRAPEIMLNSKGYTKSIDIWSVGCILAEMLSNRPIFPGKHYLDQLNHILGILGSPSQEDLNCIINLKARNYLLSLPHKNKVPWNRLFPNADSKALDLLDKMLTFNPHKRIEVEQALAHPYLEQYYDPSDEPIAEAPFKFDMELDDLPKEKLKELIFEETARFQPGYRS

One series addresses ERK2 kinase (Homo sapiens (Human), UniProt P28482). Put plainly: In vitro enzyme activity assay, ERK2 kinase (Z'-LYTE). Format: biochemical. The settings on record: class symbols; read-out: ERK2 IC50. As to the method:
Half inhibitory activity of the compounds of the invention against ERK2 kinase (IC50 value) was determined in this Example.
• Enzyme: extracellular signal-regulated kinase ERK2 kinase (PV3595, Invitrogen) • Kit: Z′-LYTE® Protein Kinase Assay Kit-Ser/Thr 3 Peptide (PV3176, Invitrogen) • Kit components: The substrate Z′-LYTE™ Ser/Thr 3 Peptide (PV3200) • The phosphorylation substrate Z′-LYTE™ Ser/Thr 3 Phospho-peptide (PV3215) • 5× kinase buffer: 250 mM HEPES (pH 7.5), 50 mM MgCl2, • 5 mM EGTA, 0.05% BRIJ-35 (PV3189, Invitrogen) • ATP (PV3227, Invitrogen) • Development Reagent A (PV3295, Invitrogen) • Development Buffer (P3127, Invitrogen) • Stop Reagent (P3094, Invitrogen) • Microplate reader: The multil-mode microplate reader PerkinElmer EnVision® • Microplate: black shallow 384-well microplate (6008269, PerkinElmer) (2). Assay Protocol:
The substrate Z′-LYTE™ Ser/Thr 3 Peptide, the phosphorylation substrate Z′-LYTE™ Ser/Thr 3 Phospho-peptide, 1× kinase buffer (5× kinase buffer was diluted with ultra pure water by five times), ATP, Development Reagent A, Development Buffer, Stop Reagent were balanced to room temperature for use. The screening concentrations for detecting the effect of the compounds of the invention on the ERK kinase activity were seven 3-fold serial dilutions starting from 1 μM (from 0.2 μM for the positive drug control) using 4% DMSO as co-solvent. 5 μL enzyme system (50 mM HEPES pH 7.5, 1 mM EGTA, 10 mM MgCl2, 0.01% Brij-35, 4 uM substrate, 0.8 ng/μL enzyme), 2.5 μL Compound, 2.5 μL 400 μM ATP were added into 384 well microplate, followed by incubation at room temperature for 60 min in the dark. After the reaction was completed, 5 μl the developing agent (Development Reagent A) diluted with the developing buffer (Development Buffer) was added to all reaction wells, followed by incubation at the room temperature for 60 min in the dark. 5 μL the terminating agent was added to each well to terminate the reaction. The fluorescence was determined using the multil-mode microplate reader PerkinElmer EnVision® (excitation wavelength 400 nm, emission wavelength 460 nm and 528 nm).
The inhibition rate of each well was calculated from 100% phosphorylation substrate well and 0% phosphorylation substrate well using the data analysis method below: phosphorylation %=1−{(emission rate×F100%−C100%)/[C0%−C100%+emission rate×(F100%−F0%)]}×100 inhibition %=100×(1−phosphorylation % of the test compound well/phosphorylation % of the 0% inhibition control) • wherein: • emission rate=fluorescence emission of the sample at 445 nm/fluorescence emission of the sample at 520 nm • F100%=the average fluorescence emission of the control well of 100% phosphorylation substrate at 520 nm • F0%=the average fluorescence emission of the control well of 0% phosphorylation substrate at 520 nm • C100%=the average fluorescence emission of the control well of 100% phosphorylation substrate at 445 nm • C0%=the average fluorescence emission of the control well of 0% phosphorylation substrate at 445 nm
Tests were carried out in duplicate. IC50 values were calculated from the inhibition of the kinase by the test compounds at a range of different concentrations.
The IC50 is the concentration that inhibits the measured activity by half. Take `Cn1nccc1Nc1nccc(-c2cc(F)c3c(c2)CCN3C(=O)Cc2ccncc2Cl)n1` [Example P37, 2-(3-chloropyridin-4-yl)-1-(7-fluoro-5-(2-((1-methyl-1H-pyrazol-5-yl)amino)pyrimidin-4-yl)indolin-1-yl)ethan-1-one]: the IC50 fell in the range of 10 to 100 nM.

Take `Cn1nccc1Nc1nccc(-c2cc(F)c3c(c2)CCN3C(=O)Cc2cccnc2Cl)n1` [Example P10, 2-(2-chloropyridin-3-yl)-1-(7-fluoro-5-(2-((1-methyl-1H-pyrazol-5-yl)amino)pyrimidin-4-yl)indolin-1-yl)ethan-1-one]: the IC50 is at most 10 nM. As to `Cn1nccc1Nc1nccc(-c2cc(F)c3c(c2)CCN3C(=O)Cc2cnccc2Cl)n1` [Example P56, 2-(4-chloropyridin-3-yl)-1-(7-fluoro-5-(2-((1-methyl-1H-pyrazol-5-yl)amino)pyrimidin-4-yl)indolin-1-yl)ethan-1-one], the IC50 is 10 to 100 nM. Same read-out and setting: the same measure for `O=C(Cc1cccnc1Cl)N1CCc2cc(-c3ccnc(N[C@H]4C[C@@H](O)C4)c3)cc(F)c21` [Example P40]: 10 to 100 nM; for `Cn1nccc1Nc1nccc(-c2cc(F)c3c(c2)CCN3C(=O)Cc2cc(Cl)ccc2F)n1` [Example P34, 2-(5-chloro-2-fluorophenyl)-1-(7-fluoro-5-(2-((1-methyl-1H-pyrazol-5-yl)amino)pyrimidin-4-yl)indolin-1-yl)ethan-1-one]: 10 to 100 nM. On the same count and under the same terms, the same measure for `O=C(Cc1cccnc1Cl)N1CCc2cc(-c3ccnc(NC4CCC(O)C4)n3)cc(F)c21` (stereo not drawn) [Example P4, 2-(2-chloropyridin-3-yl)-1-(7-fluoro-5-(2-((3-hydroxylcyclopentyl)amino)pyrimidin-4-yl)indolin-1-yl)ethan-1-one]: 10 to 100 nM; for `COCC1Cc2cc(-c3ccnc(Nc4ccnn4C)c3)cc(F)c2N1C(=O)Cc1cccnc1Cl` (stereo not drawn) [Example P58, 2-(2-chloropyridin-3-yl)-1-(7-fluoro-2-(methoxymethyl)-5-(2-((1-methyl-1H-pyrazol-5-yl)amino)pyridin-4-yl)indolin-1-yl)ethan-1-one]: at most 10 nM; for `Cn1nccc1Nc1nccc(-c2cc(F)c3c(c2)CCN3C(=O)Cc2cccc(F)c2Cl)n1` [Example P54, 2-(2-chloro-3-fluorophenyl)-1-(7-fluoro-5-(2-((1-methyl-1H-pyrazol-5-yl)amino)pyrimidin-4-yl)indolin-1-yl)ethan-1-one]: 10 to 100 nM. For `CC(CO)Nc1nccc(-c2cc(F)c3c(c2)CCN3C(=O)Cc2cccnc2Cl)n1` (stereo not drawn) [Example P1, 2-(2-chloropyridin-3-yl)-1-(7-fluoro-5-(2-((1-hydroxylprop-2-yl)amino)pyrimidin-4-yl)indolin-1-yl)ethan-1-one], the IC50 lay within 100 to 1000 nM. In the case of `Cn1nccc1Nc1nccc(-c2cc(F)c3c(c2)CCN3C(=O)Cc2cc(F)ccc2F)n1` [Example P39, 2-(2,5-difluorophenyl)-1-(7-fluoro-5-(2-((1-methyl-1H-pyrazol-5-yl)amino)pyrimidin-4-yl)indolin-1-yl)ethan-1-one], the 50% inhibitory concentration (IC50) is 100 to 1000 nM. Turning to `O=C(Cc1cccnc1Cl)N1CCc2cc(-c3ccnc(NC4CCOC4)n3)cc(F)c21` (stereo not drawn) [Example P6, 2-(2-chloropyridin-3-yl)-1-(7-fluoro-5-(2-((tetrahydrofuran-3-yl)amino)pyrimidin-4-yl)indolin-1-yl)ethan-1-one], the IC50 fell in the range of 10 to 100 nM. On the same count and under the same terms, the same measure for `Cn1nccc1Nc1cc(-c2cc(F)c3c(c2)CCN3C(=O)CCc2cccnc2Cl)ccn1` [Example P55, 3-(2-chloropyridin-3-yl)-1-(7-fluoro-5-(2-((1-methyl-1H-pyrazol-5-yl)amino)pyridin-4-yl)indolin-1-yl)propan-1-one]: 10 to 100 nM. With `O=C(Cc1cccnc1Cl)N1CCc2cc(-c3ccnc(NC4CCC(O)CC4)n3)cc(F)c21` (stereo not drawn) [Example P3, 2-(2-chloropyridin-3-yl)-1-(7-fluoro-5-(2-((4-hydroxylcyclohexyl)amino)pyrimidin-4-yl)indolin-1-yl)ethan-1-one], the IC50 was 10 to 100 nM. Still for that read-out and setting: for `Cn1nccc1Nc1nccc(-c2cc(F)c3c(c2)CCN3C(=O)Cc2ccc(Cl)cc2)n1` [Example P19, 2-(4-chlorophenyl)-1-(7-fluoro-5-(2-((1-methyl-1H-pyrazol-5-yl)amino)pyrimidin-4-yl)indolin-1-yl)ethan-1-one] the value was 100 to 1000 nM. As to `Cn1nccc1Nc1nccc(-c2cc(F)c3c(c2)CCN3C(=O)Cc2ccccc2Cl)n1` [Example P18, 2-(2-chlorophenyl)-1-(7-fluoro-5-(2-((1-methyl-1H-pyrazol-5-yl)amino)pyrimidin-4-yl)indolin-1-yl)ethan-1-one], the IC50 was at most 10 nM.

For `Cn1nccc1Nc1nccc(-c2cc(F)c3c(c2)CCN3C(=O)Cc2ccccc2F)n1` [Example P17, 1-(7-fluoro-5-(2-((1-methyl-1H-pyrazol-5-yl)amino)pyrimidin-4-yl)indolin-1-yl)-2-(2-fluorophenyl)ethan-1-one], the IC50 is 10 to 100 nM. The same measure, in the same setting: for `Cn1nccc1Nc1nccc(-c2cc(F)c3c(c2)CCN3C(=O)Cc2ccc(F)cc2Cl)n1` [Example P36, 2-(2-chloro-4-fluorophenyl)-1-(7-fluoro-5-(2-((1-methyl-1H-pyrazol-5-yl)amino)pyrimidin-4-yl)indolin-1-yl)ethan-1-one] the value was 10 to 100 nM; for `O=C(Cc1cccnc1Cl)N1CCc2cc(-c3ccnc(NC4CC4)c3)cc(F)c21` [Example P61, 2-(2-chloropyridin-3-yl)-1-(5-(2-(cyclopropylamino)pyridin-4-yl)-7-fluoroindolin-1-yl)ethan-1-one], 10 to 100 nM. Same read-out and setting: for `Cc1cnc(Nc2ccnn2C)nc1-c1cc(F)c2c(c1)CC(C)N2C(=O)Cc1cccnc1Cl` (stereo not drawn) [Example P48, 2-(2-chloropyridin-3-yl)-1-(7-fluoro-2-methyl-5-(5-methyl-2-((1-methyl-1H-pyrazol-5-yl)amino)pyrimidin-4-yl)indolin-1-yl)ethan-1-one] the value was at most 10 nM. The same measure, in the same setting: the same measure for `Cn1nccc1Nc1nccc(-c2cc(F)c3c(c2)CCN3C(=O)Cc2cc(F)ccc2Cl)n1` [Example P38, 2-(2-chloro-5-fluorophenyl)-1-(7-fluoro-5-(2-((1-methyl-1H-pyrazol-5-yl)amino)pyrimidin-4-yl)indolin-1-yl)ethan-1-one]: 10 to 100 nM.

As for `CC1Cc2cc(-c3ccnc(Nc4ccnn4C)n3)cc(F)c2N1C(=O)Cc1cccnc1Cl` (stereo not drawn) [Example P32, 2-(2-chloropyridin-3-yl)-1-(7-fluoro-2-methyl-5-(2-((1-methyl-1H-pyrazol-5-yl)amino)pyrimidin-4-yl)indolin-1-yl)ethan-1-one], the IC50 was at most 10 nM.

The same series, now with this note: read-out: IC50 against ERK2 kinase.
Consider `Cn1nccc1Nc1nccc(-c2cc(F)c3c(c2)CCN3C(=O)Cc2cccnc2Cl)n1` [Example P10, 2-(2-chloropyridin-3-yl)-1-(7-fluoro-5-(2-((1-methyl-1H-pyrazol-5-yl)amino)pyrimidin-4-yl)indolin-1-yl)ethan-1-one], for which the half-maximal inhibitory concentration (IC50) was determined as 6.1 nM.

On to `Cn1nccc1Nc1cc(-c2cc(F)c3c(c2)CCN3C(=O)C(O)c2cccnc2Cl)ccn1` (stereo not drawn) [Example P60, 2-(2-chloropyridin-3-yl)-1-(7-fluoro-5-(2-((1-methyl-1H-pyrazol-5-yl)amino)pyridin-4-yl)indolin-1-yl)-2-hydroxylethan-1-one], for which the IC50 stood at 10 nM. Still for that read-out and setting: the same measure for `Cn1nccc1Nc1nccc(-c2cc(F)c3c(c2)CCN3C(=O)Cc2ccccc2Cl)n1` [Example P18, 2-(2-chlorophenyl)-1-(7-fluoro-5-(2-((1-methyl-1H-pyrazol-5-yl)amino)pyrimidin-4-yl)indolin-1-yl)ethan-1-one]: 3 nM; for `CC1CN(C(=O)Cc2cccnc2Cl)c2c(F)cc(-c3ccnc(Nc4ccnn4C)c3)cc21` (stereo not drawn) [Example P59, 2-(2-chloropyridin-3-yl)-1-(7-fluoro-3-methyl-5-(2-((1-methyl-1H-pyrazol-5-yl)amino)pyridin-4-yl)indolin-1-yl)ethan-1-one]: 4.8 nM.

The test system of another series is patients having melanoma with NRAS mutation and solid tumors with BRAF V600 and non-V600 mutants.
Experiment: not given
The following applies: 600 mg twice a day; cited from earlier work.
In the case of `CC(C)Nc1cc(-c2c[nH]c(C(=O)N[C@H](CO)c3cccc(Cl)c3)c2)c(Cl)cn1` [BVD-523, Ulixertinib], the efficacy in patients result is “lasting efficacy” and the safety in patients entry was “acceptable safety”.
